Structures can show the parent of a compound that is named as a salt.
How the values were obtained:
Assay in all cases: isoTOP-ABPP of compound-treated primary human T cells
Type in all cases: cell-based
[1] = molecular target: T1, Cys residues in primary human T cells (Homo sapiens, UniProt A6NDG6); conditions: PGP C297 (A6NDG6)
T1 sequence (A6NDG6 1-321): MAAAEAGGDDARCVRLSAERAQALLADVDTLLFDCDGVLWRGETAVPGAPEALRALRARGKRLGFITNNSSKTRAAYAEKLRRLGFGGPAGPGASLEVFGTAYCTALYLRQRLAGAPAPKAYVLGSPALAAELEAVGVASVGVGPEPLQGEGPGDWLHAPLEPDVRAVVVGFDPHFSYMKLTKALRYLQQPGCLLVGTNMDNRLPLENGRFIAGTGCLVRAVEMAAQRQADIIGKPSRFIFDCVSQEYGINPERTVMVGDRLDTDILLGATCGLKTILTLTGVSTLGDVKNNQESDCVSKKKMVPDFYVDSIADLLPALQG

[2] = molecular target: Cys residues in primary human T cells (Homo sapiens, UniProt P21580); conditions: TNFAIP3 C54 (P21580)
Cys residues in primary human T cells (Homo sapiens, UniProt P21580), sequence (P21580 whole entry): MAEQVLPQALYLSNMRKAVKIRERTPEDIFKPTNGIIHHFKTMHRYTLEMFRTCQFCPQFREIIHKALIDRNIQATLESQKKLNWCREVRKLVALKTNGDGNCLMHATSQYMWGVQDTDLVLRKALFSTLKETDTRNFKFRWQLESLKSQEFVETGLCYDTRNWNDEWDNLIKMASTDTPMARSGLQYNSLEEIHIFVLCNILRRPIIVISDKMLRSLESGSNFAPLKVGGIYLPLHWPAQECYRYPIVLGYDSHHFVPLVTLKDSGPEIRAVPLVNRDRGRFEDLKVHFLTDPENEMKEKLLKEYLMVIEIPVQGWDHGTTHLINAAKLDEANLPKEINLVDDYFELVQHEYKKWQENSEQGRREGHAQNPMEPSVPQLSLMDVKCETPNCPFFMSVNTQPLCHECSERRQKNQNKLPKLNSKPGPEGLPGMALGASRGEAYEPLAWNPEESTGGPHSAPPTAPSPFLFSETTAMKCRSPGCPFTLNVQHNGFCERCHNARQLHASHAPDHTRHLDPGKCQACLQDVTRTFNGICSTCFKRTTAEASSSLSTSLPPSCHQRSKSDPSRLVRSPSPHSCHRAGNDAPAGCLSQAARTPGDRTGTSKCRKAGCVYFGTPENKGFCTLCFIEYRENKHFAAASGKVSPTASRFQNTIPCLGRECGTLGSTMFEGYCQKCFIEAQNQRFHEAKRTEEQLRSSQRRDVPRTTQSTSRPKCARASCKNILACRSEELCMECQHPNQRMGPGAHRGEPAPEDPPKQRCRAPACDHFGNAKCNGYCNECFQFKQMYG

[3] = molecular target: T2, Cys residues in primary human T cells (Homo sapiens, UniProt Q02556); conditions: IRF8 C306 (Q02556)
T2 sequence (Q02556 1-426): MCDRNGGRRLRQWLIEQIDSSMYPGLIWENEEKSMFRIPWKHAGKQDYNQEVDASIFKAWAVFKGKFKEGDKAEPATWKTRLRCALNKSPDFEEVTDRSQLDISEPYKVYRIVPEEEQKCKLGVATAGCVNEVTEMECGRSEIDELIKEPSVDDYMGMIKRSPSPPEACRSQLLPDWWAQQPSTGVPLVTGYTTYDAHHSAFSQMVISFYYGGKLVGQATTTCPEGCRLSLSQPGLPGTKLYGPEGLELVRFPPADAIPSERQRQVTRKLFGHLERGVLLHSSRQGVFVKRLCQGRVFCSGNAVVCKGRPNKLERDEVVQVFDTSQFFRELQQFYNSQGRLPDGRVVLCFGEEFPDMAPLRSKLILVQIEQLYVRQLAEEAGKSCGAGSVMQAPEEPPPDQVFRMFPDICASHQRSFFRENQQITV

[4] = molecular target: T3, Cys residues in primary human T cells (Homo sapiens, UniProt Q16548)
T3 sequence (Q16548 1-175): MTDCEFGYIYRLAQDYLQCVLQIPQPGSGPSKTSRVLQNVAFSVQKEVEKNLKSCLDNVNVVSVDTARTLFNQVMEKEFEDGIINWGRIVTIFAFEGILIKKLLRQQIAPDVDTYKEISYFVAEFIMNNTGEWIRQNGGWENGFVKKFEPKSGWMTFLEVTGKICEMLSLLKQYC

[5] = molecular target: T4, Cys residues in primary human T cells (Homo sapiens, UniProt Q6IA69); conditions: NADSYN1 C428 (Q6IA69)
T4 sequence (Q6IA69 1-706): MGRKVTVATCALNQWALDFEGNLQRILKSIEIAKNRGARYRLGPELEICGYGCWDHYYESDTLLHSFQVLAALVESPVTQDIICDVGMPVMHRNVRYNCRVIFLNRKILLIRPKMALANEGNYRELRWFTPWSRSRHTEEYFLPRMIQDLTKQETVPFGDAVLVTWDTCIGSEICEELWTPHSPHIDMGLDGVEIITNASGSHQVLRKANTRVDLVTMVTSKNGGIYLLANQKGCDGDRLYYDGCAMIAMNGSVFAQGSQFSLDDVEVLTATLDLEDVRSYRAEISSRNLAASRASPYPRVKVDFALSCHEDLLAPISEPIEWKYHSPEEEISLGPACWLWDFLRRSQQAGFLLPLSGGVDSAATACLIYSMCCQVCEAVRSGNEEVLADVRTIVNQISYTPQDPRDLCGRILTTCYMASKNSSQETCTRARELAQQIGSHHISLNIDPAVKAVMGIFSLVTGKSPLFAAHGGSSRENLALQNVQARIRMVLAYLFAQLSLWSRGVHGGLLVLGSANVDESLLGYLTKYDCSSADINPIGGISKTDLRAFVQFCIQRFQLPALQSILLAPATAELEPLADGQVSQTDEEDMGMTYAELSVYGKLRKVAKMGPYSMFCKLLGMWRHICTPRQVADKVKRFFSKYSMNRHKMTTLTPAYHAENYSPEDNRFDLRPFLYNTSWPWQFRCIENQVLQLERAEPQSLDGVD

[6] = molecular target: Cys residues in primary human T cells (Homo sapiens, UniProt Q7Z2W4); conditions: ZC3HAV1 C645 (Q7Z2W4)
Cys residues in primary human T cells (Homo sapiens, UniProt Q7Z2W4), sequence (Q7Z2W4 whole entry): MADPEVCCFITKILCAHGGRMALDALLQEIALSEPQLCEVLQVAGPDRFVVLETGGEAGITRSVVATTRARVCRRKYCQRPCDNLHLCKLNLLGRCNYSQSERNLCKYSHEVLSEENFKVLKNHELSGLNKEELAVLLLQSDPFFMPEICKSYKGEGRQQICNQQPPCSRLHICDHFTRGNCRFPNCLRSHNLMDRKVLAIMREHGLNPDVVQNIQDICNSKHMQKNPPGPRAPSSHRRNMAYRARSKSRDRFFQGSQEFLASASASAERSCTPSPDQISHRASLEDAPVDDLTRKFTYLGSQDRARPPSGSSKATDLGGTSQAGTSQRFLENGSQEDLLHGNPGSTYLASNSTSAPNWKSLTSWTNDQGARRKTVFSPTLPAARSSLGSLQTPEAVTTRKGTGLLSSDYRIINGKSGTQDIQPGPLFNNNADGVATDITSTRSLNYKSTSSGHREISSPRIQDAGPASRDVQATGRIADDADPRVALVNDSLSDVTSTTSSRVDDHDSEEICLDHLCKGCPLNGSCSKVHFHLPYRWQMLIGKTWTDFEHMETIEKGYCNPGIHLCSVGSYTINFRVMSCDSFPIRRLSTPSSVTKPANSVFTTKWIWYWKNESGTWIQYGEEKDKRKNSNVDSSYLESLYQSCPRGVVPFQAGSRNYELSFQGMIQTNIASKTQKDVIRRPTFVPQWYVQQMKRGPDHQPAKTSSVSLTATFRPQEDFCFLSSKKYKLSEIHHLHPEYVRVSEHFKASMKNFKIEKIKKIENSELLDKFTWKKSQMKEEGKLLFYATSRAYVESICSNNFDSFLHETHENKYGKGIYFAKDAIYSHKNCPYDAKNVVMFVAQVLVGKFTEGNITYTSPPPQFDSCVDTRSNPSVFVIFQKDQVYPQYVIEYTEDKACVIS

[7] = molecular target: Cys residues in primary human T cells (Homo sapiens, UniProt Q8IYQ7); conditions: THNSL1 C324 (Q8IYQ7)
Cys residues in primary human T cells (Homo sapiens, UniProt Q8IYQ7), sequence (Q8IYQ7 whole entry): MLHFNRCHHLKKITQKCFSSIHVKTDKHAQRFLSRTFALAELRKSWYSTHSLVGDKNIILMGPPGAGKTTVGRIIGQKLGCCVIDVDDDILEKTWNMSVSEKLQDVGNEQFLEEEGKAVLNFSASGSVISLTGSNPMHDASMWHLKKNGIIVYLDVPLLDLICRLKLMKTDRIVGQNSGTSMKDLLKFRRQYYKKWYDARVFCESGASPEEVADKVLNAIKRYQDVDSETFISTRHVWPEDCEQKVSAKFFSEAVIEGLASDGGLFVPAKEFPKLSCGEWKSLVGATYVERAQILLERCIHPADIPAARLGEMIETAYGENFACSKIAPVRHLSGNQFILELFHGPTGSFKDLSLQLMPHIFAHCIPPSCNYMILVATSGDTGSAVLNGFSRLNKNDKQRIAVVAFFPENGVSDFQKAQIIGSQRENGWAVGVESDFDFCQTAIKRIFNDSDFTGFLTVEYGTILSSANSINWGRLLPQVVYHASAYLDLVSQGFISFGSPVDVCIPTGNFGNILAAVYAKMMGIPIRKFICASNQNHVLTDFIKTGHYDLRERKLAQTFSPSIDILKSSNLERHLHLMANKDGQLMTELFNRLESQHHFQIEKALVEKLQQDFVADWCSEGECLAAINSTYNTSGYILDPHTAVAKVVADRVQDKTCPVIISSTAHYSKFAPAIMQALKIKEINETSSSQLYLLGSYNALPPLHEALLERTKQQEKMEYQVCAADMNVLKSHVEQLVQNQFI

[8] = molecular target: T5, Cys residues in primary human T cells (Homo sapiens, UniProt Q9NRW3); conditions: APOBEC3C C130 (Q9NRW3)
T5 sequence (Q9NRW3 1-190): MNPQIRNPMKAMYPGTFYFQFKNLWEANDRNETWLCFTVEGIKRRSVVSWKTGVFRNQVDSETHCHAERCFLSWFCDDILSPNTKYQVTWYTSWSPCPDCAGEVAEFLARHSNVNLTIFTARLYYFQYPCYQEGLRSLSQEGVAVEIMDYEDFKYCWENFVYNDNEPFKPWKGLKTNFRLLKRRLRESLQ

[9] = system: Cys residues in primary human T cells; conditions: 4 h

SMILES: COC(=O)/C=C/C(=O)OC [DMF, dimethyl fumarate]
- R value (DMSO/DMF) ([1]; DMF 50 μM 1h): 3.06
- R value (DMSO/DMF) ([1]; DMF 50 μM 2h): 4.21
- R value (DMSO/DMF) ([1]; DMF 50 μM 4h): 10.77
- R value (DMSO/DMF) ([2]; DMF 10 μM 4h): 1.58
- R value (DMSO/DMF) ([2]; DMF 50 μM 2h): 5.34
- R value (DMSO/DMF) ([3]; DMF 10 μM 4h): 1.9
- R value (DMSO/DMF) ([3]; DMF 50 μM 1h): 1.66
- R value (DMSO/DMF) ([3]; DMF 50 μM 4h): 5.32
- R value (DMSO/DMF) ([4]; BCL2A1 C19 (Q16548), DMF 10 μM 4h): 1,15
- R value (DMSO/DMF) ([4]; BCL2A1 C19 (Q16548), DMF 25 μM 4h): 2.19
- R value (DMSO/DMF) ([4]; BCL2A1 C19 (Q16548), DMF 50 μM 2h): 2.09
- R value (DMSO/DMF) ([4]; BCL2A1 C19 (Q16548), DMF 50 μM 4h): 4.16
- R value (DMSO/DMF) ([4]; BCL2A1 C55 (Q16548), DMF 50 μM 4h): 7.18
- R value (DMSO/DMF) ([5]; DMF 10 μM 4h): 1.43
- R value (DMSO/DMF) ([5]; DMF 50 μM 1h): 1.81
- R value (DMSO/DMF) ([5]; DMF 50 μM 2h): 2.31
- R value (DMSO/DMF) ([5]; DMF 50 μM 4h): 20
- R value (DMSO/DMF) ([6]; DMF 10 μM 4h): 1.46
- R value (DMSO/DMF) ([6]; DMF 25 μM 4h): 2.52
- R value (DMSO/DMF) ([6]; DMF 50 μM 1h): 2.36
- R value (DMSO/DMF) ([6]; DMF 50 μM 2h): 3.13
- R value (DMSO/DMF) ([6]; DMF 50 μM 4h): 6.28
- R value (DMSO/DMF) ([7]; DMF 50 μM 1h): 15.93
- R value (DMSO/DMF) ([7]; DMF 50 μM 2h): 19.36
- R value (DMSO/DMF) ([8]; DMF 10 μM 4h): 1.92
- R value (DMSO/DMF) ([8]; DMF 50 μM 1h): 8.6
- R value (DMSO/DMF) ([8]; DMF 50 μM 2h): 20
- R value (DMSO/DMF) ([8]; DMF 50 μM 4h): 20
- DMF-sensitive Cys residues detected ([9]; 10 μM): very few
- number of Cys residues with R value >4 (of more than 2400 quantified) ([9]; 50 μM): ~40

Reference: patent US10670605B2, “Cysteine reactive probes and uses thereof” (The Scripps Research Institute, priority 2015, dated 2020)
